Source: patent US20140294849A1, “COMPOSITIONS AND USES” (GLAXOSMITHKLINE BIOLOGICALS SA, priority 2011, published 2014)

Tests used:
CD11b+ monocytes = assay: In vivo uptake assay of Aβ42 after immunization or passive immunotherapy; design: species or system C57BL/6 mice; conditions: Example 20
Method: Mice: C57BL/6 female mice were purchased from Charles River. […]
[…] At day 22, 5 μg per mouse of fluorescent HiLyte Fluor™ 488-labeled Amyloid β1-42 (Anaspec, Fremont, Calif.) was injected in the tail vein. […] Plasma of pooled blood was decanted and saved for measurement of antibody titres by ELISA. Red blood cell lysis was performed twice with Ammonium Chloride-based Buffer (Sigma, Steinheim, Germany) and cells were counted with the EasyCount™ System (Immunicon).
FACS analysis: 500,000 cells were aliquoted in a 96-well plate, washed once, incubated for 10 min. on ice in the presence of Rat anti-Mouse CD16/CD32 (clone 2.4G2—BD Fc Block™) and further stained for 30 min. with a combination of the following directly conjugated antibodies at their pre-determined optimal concentration: PE-Hamster anti-Mouse CD3 (clone 145-2C11), Rat anti-Mouse CD45R/B220 (clone RA3-6B2), Rat anti-Mouse Ly-6G (clone 1A8), Mouse anti-Mouse NK1.1 (clone PK136), APC-conjugated Rat anti-Mouse CD11b (clone M1/70), PE-Cy7-conjugated Hamster anti-Mouse CD11c (clone HL3), (all from BD PharMingen). Cells were finally washed twice and fixed for 15 min. with a 2% paraformaldehyde solution in PBS. FMOs controls were always included in the assays.
Samples were acquired on a flow cytometer (BD FACSCanto II) and data analyzed with the FACSDiva software (BD Biosciences).
Monocytes were identified by their Side/Forward scatter properties, excluding debris and gated as CD3-/CD45R/B220-/Ly-6G-/NK1.1-(Lineage-)/CD11b+ cells. Aβ uptake was assessed by reporting the percentage and Mean Fluorescence Intensity (GeoMean) of positive HiLyte Fluor™ 488 Aβ1-42 cells among gated monocytes.
Mice were passively immunized with a constant dose of anti Aβ monoclonal antibody (15 ug of 2E7)+different dose of immunomodulators (CRX601 or CRX601/AS03 or AS01B). […] Red blood cell lysis was performed twice with Ammonium Chloride-based Buffer (Sigma, Steinheim, Germany) and cells were counted with the EasyCount™ System (Immunicon). […]

[1] = system: spatial learning and memory; assay: T-water maze in APP/PS1 mice; format: in vivo, APPSwe/PS1 mice
Method: Five groups of APPSwe/PS1 mice received one a week for a period of 12 weeks the following treatment: • Gr1: APPSwe/PS1+NaCl 0.9% n(=20), i.p. injections • Gr4: APPSwe/PS1+CRX527 (20 μg/mouse, 130 μl, n=10), i.p. injections • Gr5: […] (50 μg/mouse, 130 μl, n=10), i.p. injections • Gr8 APPSwe/PS1+AS15 ( 1/10th of human dose, 50 μl, n=10), i.m. injections • Gr9: APPSwe/PS1+AS01B ( 1/10th of human dose, 50 μl, n=10), i.m. injections
Mice were tested during the “light on” phase of the day. Behavioral experimenter was blinded to the genetic and treatment status of animals. To assess hippocampal-dependent spatial learning and memory, mice were trained in the T-water maze task. In this paradigm, we evaluate the mouse's ability to remember the spatial location of submerged platform. The T-maze apparatus (length of stem, 64 cm; length of arms, 30 cm; width, 12 cm; height of walls, 16 cm) was made of clear fiberglass and filled with water (23±1° C.) at a height of 12 cm. A platform (11×11 cm) was placed at the end of the target arm and was submerged 1 cm below the surface. The acquisition phase allows to evaluate animals for left-right spatial learning. During the first two trials, platforms were placed on each arms of the maze to test the spontaneous turning preference of the mouse. After these two trials, the least chosen arm was reinforced by the escape platform. The mice were placed in the stem of the T-maze and choose to swim either left or right until they found the submerged platform and escape to it, to a maximum of 60 s. After reaching the platform, the mice remained on it for 20 s and then were immediately placed back in the maze. […] Repeated trials were presented on the same day up to a maximum of 48 trials. A rest period of at least 10-15 min intervened between each block of 10 trials. A mouse was considered to have learned the task when it made no errors in a block of five consecutive trials. The reversal learning phase was then conducted 48 h later. During this phase, the same protocol was repeated, except that the mice were trained to find the escape platform on the opposite side to that on which they had learned on acquisition phase. The number of trials to reach the criterion (five of five correct choices made on consecutive trials) was measured as well as the latency to find the escape platform.

## CCCCCCCCCCC[C@H](CC(=O)N[C@H]1[C@H](OC[C@H](NC(=O)C[C@@H](CCCCCCCCCCC)OCCCCCCCCCC)C(=O)O)O[C@H](CO)[C@@H](OP(=O)(O)O)[C@@H]1OC(=O)C[C@@H](CCCCCCCCCCC)OCCCCCCCCCC)OCCCCCCCCCC [CRX601]
CD11b+ monocytes; CRX601 20 ug with AS03
  antibody-mediated Aβ uptake when combined with AS03 emulsion: partially quenched
CD11b+ monocytes; CRX601 at 20 ug single i.m., 15 ug of 2E7, 24 hrs
  antibody-mediated Aβ uptake: highest Aβ uptake
CD11b+ monocytes; different doses, constant 2E7
  dose dependence of antibody-mediated Aβ uptake: Dose-response observed
[1]; Example 21, twelve weekly injections, vs non treated mice
  behaviour as assessed by T water maze testing: significant improvements in behaviour
[1]; Example 22, i.m. 12x weekly, CRX601 2 μg, CRX601 2 ug in AS03, 3D MPL 5 ug, AS01B 1/10 human dose, vs PBS, unpaired t-tests
  cognitive functions, T-water maze: significant improvement of their cognitive functions
